Results reported in US12594276B2, “Inhibitors of human immunodeficiency virus replication” (ViiV Healthcare UK (No.5) Limited, priority 2024, dated 2026).
pEC50: −log10 of the molar value.

How the values were obtained:
[1] = test system: recombinant NL4-3 virus (nef section replaced with Renilla luciferase gene) in MT-2 cells; assay: HIV cell culture assay (antiviral activity, luciferase readout); assay type: cell-based; conditions: Renilla, NL43, MT-2 cells infected for 4-5 days with recombinant NL4-3 Renilla luciferase virus
Protocol: HIV cell culture assay—MT-2 cells, 293T cells and the proviral DNA clone of NL4-3 virus were obtained from the NIH AIDS Research and Reference Reagent Program. MT-2 cells were propagated in RPMI 1640 media supplemented with 10% heat inactivated fetal bovine serum (FBS), […]. The 293T cells were propagated in DMEM media supplemented with 10% heat inactivated FBS, […]. A recombinant NL4-3 proviral clone, in which a section of the nef gene was replaced with the Renilla luciferase gene, was used to make the reference virus used in these studies. The recombinant virus was prepared through transfection of the recombinant NL4-3 proviral clone into 293T cells using Transit-293 Transfection Reagent from Mirus Bio LLC (Madison, WI). Supernatant was harvested after 2-3 days and the amount of virus present was titered in MT-2 cells using luciferase enzyme activity as a marker by measuring luciferase enzyme activity. Luciferase was quantitated using the EnduRen Live Cell Substrate from Promega (Madison, WI). Antiviral activities of compounds toward the recombinant virus were quantified by measuring luciferase activity in MT-2 cells infected for 4-5 days with the recombinant virus in the presence of serial dilutions of the compound.
The 50% effective concentration (EC50) was calculated by using the exponential form of the median effect equation where (Fa)=1/[1+(ED50/drug conc.)m](Johnson V A, Byington R T. Infectivity Assay. In Techniques in HIV Research. ed. Aldovini A, Walker B D. 71-76. New York: Stockton Press. 1990). Curve fitting and analysis were performed with ActivityBase XE Runner software version 9.1.0.4 using model 203 (ID Business Solutions, LTD, Guildford, UK).

[2] = Compound cytotoxicity, XTT-based colorimetric assay; assay type: cell-based; conditions: human; uninfected MT2 cells, day 4, XTT; read-out: CC50
Protocol: Compound cytotoxicity and the corresponding CC50 values were determined using the same protocol as described in the antiviral assay except that uninfected cells were used. Cytotoxicity was assessed on day 4 in uninfected MT2 cells by using an XTT (2,3-bis[2-Methoxy-4-nitro-5-sulfophenyl]-2H-tetrazolium-5-carboxyanilide inner salt)-based colorimetric assay (Sigma-Aldrich, St Louis, Mo).

Row | Compound | pEC50 [1] | CC50 at 4 days [2] [nM]
1 | Cc1cc(C2CCC(F)(F)CC2)nc2nc([C@H](Cc3cc(F)cc(F)c3)NC(=O)Cn3nc(C4CC4)c4c3C[C@@H]3C[C@H]43)n(-c3ccc(Cl)c4c(NS(C)(=O)=O)nn(CCN5C[C@H](F)C[C@H](F)C5)c34)c(=O)c12 (atropisomer, axis not shown; (P)) [Example 1, N-[(1S)-1-[(3P)-3-(4-chloro-1-{2-[(3R,5S)-3,5-difluoropiperidin-1-yl]ethyl}-3-methanesulfonamido-1H-indazol-7-yl)-7-(4,4-difluorocyclohexyl)-5-methyl-4-oxo-3H,4H-pyrido[2,3-d]pyrimidin-2-yl]-2-(3,5-difluorophenyl)ethyl]-2-[(2S,4S)-9-cyclopropyl-7,8-diazatricyclo[4.3.0.0^2,^4]nona-1(6),8-dien-7-yl]acetamide] | 11.05 | > 50
2 | Cc1cc(C2(F)CCC(F)(F)CC2)nc2nc([C@H](Cc3cc(F)cc(F)c3)NC(=O)Cn3nc(C(F)F)c4c3C(F)(F)[C@@H]3C[C@H]43)n(-c3ccc(Cl)c4c(NS(C)(=O)=O)nn([C@H](C)C(=O)N5C[C@H](F)C[C@H](F)C5)c34)c(=O)c12 (atropisomer, axis not shown; (P)) [Example 755, N-[(1S)-1-[(3P)-3-{4-chloro-1-[(2R)-1-[(3R,5S)-3,5-difluoropiperidin-1-yl]-1-oxopropan-2-yl]-3-methanesulfonamido-1H-indazol-7-yl}-5-methyl-4-oxo-7-(1,4,4-trifluorocyclohexyl)-3H,4H-pyrido[2,3-d]pyrimidin-2-yl]-2-(3,5-difluorophenyl)ethyl]-2-[(2S,4R)-9-(difluoromethyl)-5,5-difluoro-7,8-diazatricyclo[4.3.0.0^2,^4]nona-1(6),8-dien-7-yl]acetamide] | 10.57 | –
3 | Cc1cc(C2CCC(F)(F)CC2)nc2nc([C@H](Cc3cc(F)cc(F)c3)NC(=O)Cn3nc(C4CC4)c4c3C[C@@H]3C[C@H]43)n(-c3ccc(Cl)c4c(NS(C)(=O)=O)nn(C[C@@H](C)N5CC(C)(C)OC(C)(C)C5)c34)c(=O)c12 (relative stereo) [Example 706, N-[(1S)-1-[(3P)-3-{4-chloro-3-methanesulfonamido-1-[(2R)-2-(2,2,6,6-tetramethylmorpholin-4-yl)propyl]-1H-indazol-7-yl}-7-(4,4-difluorocyclohexyl)-5-methyl-4-oxo-3H,4H-pyrido[2,3-d]pyrimidin-2-yl]-2-(3,5-difluorophenyl)ethyl]-2-[(2R*,4R*)-9-cyclopropyl-7,8-diazatricyclo[4.3.0.0^2,^4]nona-1(6),8-dien-7-yl]acetamide] | 10.82 | –
4 | Cc1cc(C2(F)CCC(F)(F)CC2)nc2nc([C@H](Cc3cc(F)cc(F)c3)NC(=O)Cn3nc(C4CC4)c4c3C[C@@H]3C[C@H]43)n(-c3ccc(Cl)c4c(NS(C)(=O)=O)nn([C@H](C)C(=O)N5C[C@H](F)C[C@H](F)C5)c34)c(=O)c12 (relative stereo) [Example 756, N-[(1S)-1-[(3P)-3-{4-chloro-1-[(2R)-1-[(3R,5S)-3,5-difluoropiperidin-1-yl]-1-oxopropan-2-yl]-3-methanesulfonamido-1H-indazol-7-yl}-5-methyl-4-oxo-7-(1,4,4-trifluorocyclohexyl)-3H,4H-pyrido[2,3-d]pyrimidin-2-yl]-2-(3,5-difluorophenyl)ethyl]-2-[(2R*,4R*)-9-cyclopropyl-7,8-diazatricyclo[4.3.0.0^2,^4]nona-1(6),8-dien-7-yl]acetamide] | 10.43 | –
